Experimental data published in PMC9094411 (2022).

System: E. coli SugE guanidine-II riboswitch aptamer, 47mer FRET construct (C1G) (RNA, riboswitch, 5-aminoallyl-uridine at 3 (dye conjugated)) GUUUGCAGGACGACCUGCAAACGCCUCUUUUCACCGGGGACGGCCCC
Assay: smFRET histograms, immobilised RNA (kissing-loop state population)
Settings: Mg2+ 1 mM, 50 mM Tris/Cl pH 7.4, 22 °C, imaging buffer, 30 nM-30 mM ligand

Which binding (K-state 66% at 30 mM buffer, highest tested 30 mM, no K-state shift, RNA destabilised (U-state 35%)) does the source give for `NC(N)=O` here?
The binding was “no”.

`N=C(N)N` was tested. Which binding (K-state 66% at 30 mM) did it give?
The binding was “yes”.
